{"source": "paper PMC8507696", "about": "“Effect of Peptide Receptor Radionuclide Therapy in Combination with Temozolomide against Tumor Angiogenesis in a Glioblastoma Model” (Cancers, 2021)", "key": {"integrin αvβ3": {"test_system": "integrin αvβ3", "experiment": "anti-integrin αvβ3 immunohistochemical staining of dissected tumor tissues", "format": "in vivo, BALB/c nu/nu nude mice", "details": "TMZ 5 mgkg^−1, after 2 weeks", "experimental": "Tumor tissues were harvested on day 14 after the treatment and immediately fixed in 10% formalin solution. Frozen tissue sections (5 μm) were placed onto glass slides. The tumor sections were stained with anti-integrin αvβ3 rabbit antibody (1:1000, Millipore) at 4 °C for 16 h. The sections were then incubated with anti-rabbit secondary antibody (biotinylated) at room temperature for 1 h. The detection system (Vector Laboratories, Burlingame, CA, USA) was applied according to the manufacturer’s instructions. The nuclei were counter-stained with hematoxylin (Invitrogen, Carlsbad, CA, USA). For assessment of tumor vascularization, mouse anti-human CD31 monoclonal antibody (diluted 1:40, Dako) staining was performed on acetone-fixed cryosections using a blood vessel staining kit (ECM590, Millipore Ireland, Cork, Ireland). For another assessment of integrin αvβ3 receptors in dissected tumor tissues, anti-integrin αvβ3 (SC-7312, Santa Cruz Biotech, Santa Cruz, CA, USA) was used. Primary antibody against γH2AX (diluted 1:50, Abcam) was applied to acetone-fixed cryosections and incubated overnight. […] Images were acquired using Axioscope A1 fluorescent microscope (Carl Zeiss, Jena, Germany) or AxioCam MRc5 (Carl Zeiss, Jena, Germany) and analyzed with Axiovision software (version 4.4, Carl Zeiss Meditec, Jena, Germany). […]"}, "U87-MG xenografts": {"test_system": "U87-MG xenografts", "experiment": "combination therapy of TMZ with 188Re-IDA-D-[c(RGDfK)]2: tumor volume", "format": "in vivo, BALB/c nu/nu nude mice", "details": "TMZ 2 or 5 mgkg^−1 once a week for 14 days, n = 4", "experimental": "A suspension of human glioblastoma U87-MG cells was prepared (5 × 10^6 cellsmL^−1). A total of 0.1 mL of cell suspension was injected subcutaneously into the right flank of a 6–7-week-old male BALB/c nu/nu nude mice (20–25 g, Orient Bio Inc., Seongnam, Korea). In the case of pharmacokinetic studies of ^99mTc-IDA-D-[c(RGDfK)]2, we used tumor xenograft mice whose tumor cells were inoculated in the right shoulder and performed the SPECT imaging study when tumor volume reached 68.7 ± 18.8 mm^3 at 10 days after injection of U87-MG cells. Evaluations of integrin-targeted blocking and radiotherapy treatment on the growth of U87-MG xenografts were carried out when tumor volume reached 59.4 ± 14.9 mm^3 (For authentic “cold” Re-peptide (^185/187Re-IDA-D-[c(RGDfK)]2) treatment) and 66.2 ± 15.3 mm^3 (For radiotherapy (^188Re-IDA-D-[c(RGDfK)]2) treatment) at 10 days after injection of U87-MG cells. Experiments with vehicle, negative control peptide (^188Re-IDA-D-[c(RADfK)]2) or ^188Re-IDA-D-[c(RGDfK)]2 treatments (11.1 MBq) in U87-MG xenografts were carried out when tumor volume reached 40.3 ± 14.8 mm^3 at 9 days after injection of U87-MG cells. […]\nFor caliper measurements, tumor length (longitudinal diameter) and tumor width (transverse diameter) were measured, and the tumor volume was calculated according to the following formula: tumor volume = (length × width^2)/2."}}}
{"smiles": "Cn1nnc2c(C(N)=O)ncn2c1=O", "note": "[TMZ, Temozolomide]", "values": [{"measurement": "integrin expression in tumor tissues", "setting": "integrin αvβ3", "value": "reduced integrin expression"}, {"measurement": "tumor size compared with saline treatment", "setting": "U87-MG xenografts", "value": "significantly reduced tumor size"}]}
